Data reported in US11390604B2 (Hoffmann-La Roche Inc., priority 2019, dated 2022).
Counter-ions that a name gives are not always drawn.

tested on: Acinetobacter baumannii ATCC 17961; assay: Antimicrobial susceptibility testing: 90% growth inhibitory concentration (IC90) determination; type: cell-based; conditions: ATCC17961, Acinetobacter baumannii ATCC 17961, Iso-Sensitest broth, read-out: ATCC 17961 IC90
In short: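 Growth was followed kinetically by OD600 at 20-min intervals for 16 h at 35±2 °C, with ~5×10^5 CFU/ml in Iso-Sensitest broth. Compounds were tested as twofold dilutions (e.g. 50–0.097 μM final). The concentration giving 90% inhibition of log-phase growth was reported.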

SMILES | IC90 [nM]
CCc1cc(NC(=O)c2ncc(-c3cn(C)nc3C(F)(F)F)n2C)ccc1C(=O)NCCOCCN [Example 57, N-(4-((2-(2-aminoethoxy)ethyl)carbamoyl)-3-ethylphenyl)-1-methyl-5-(1-methyl-3-(trifluoromethyl)-1H-pyrazol-4-yl)-1H-imidazole-2-carboxamide hydrochloride] | 4150
CN(C)CC(=O)N1CCN(S(=O)(=O)c2ccc(NC(=O)c3ncc(-c4c[nH]nc4C(F)(F)F)n3C)cc2Cl)CC1 [Example 58, N-(3-Chloro-4-((4-(dimethylglycyl)piperazin-1-yl)sulfonyl)phenyl)-1-methyl-5-(3-(trifluoromethyl)-1H-pyrazol-4-yl)-1H-imidazole-2-carboxamide] | 952
Cn1c(-c2c[nH]nc2C(F)(F)F)cnc1C(=O)Nc1ccc(S(=O)(=O)N2CCN(C(=O)[C@@H]3C[C@@H](O)CN3)CC2)c(Cl)c1 [Example 59, N-(3-Chloro-4-((4-((2S,4R)-4-hydroxypyrrolidine-2-carbonyl)piperazin-1-yl)sulfonyl)phenyl)-1-methyl-5-(3-(trifluoromethyl)-1H-pyrazol-4-yl)-1H-imidazole-2-carboxamide Hydrochloride] | 823
Cn1c(-c2cn(CC#N)nc2C(F)(F)F)cnc1C(=O)Nc1ccc(C(=O)N2CCN(C(=O)C3(O)CCNCC3)CC2)c(Cl)c1 [Example 60, N-[3-Chloro-4-[4-(4-hydroxypiperidine-4-carbonyl)piperazine-1-carbonyl]phenyl]-5-[1-(cyanomethyl)-3-(trifluoromethyl)pyrazol-4-yl]-1-methyl-imidazole-2-carboxamide; Formic Acid] | 468
Cn1c(-c2cn(CC#N)nc2C(F)(F)F)cnc1C(=O)Nc1ccc(C(=O)N2CCN(C(=O)C3CCNCC3)CC2)c(Cl)c1 [Example 61, N-[3-Chloro-4-[4-(piperidine-4-carbonyl)piperazine-1-carbonyl]phenyl]-5-[1-(cyanomethyl)-3-(trifluoromethyl)pyrazol-4-yl]-1-methyl-imidazole-2-carboxamide Formate] | 506
C[C@H](N)C(=O)N1CCN(C(=O)c2ccc(NC(=O)c3ncc(-c4cn(Cc5cccnc5)nc4C(F)(F)F)n3C)cc2Cl)CC1 [Example 62, N-[4-[4-[(2S)-2-Aminopropanoyl]piperazine-1-carbonyl]-3-chlorophenyl]-1-methyl-5-[1-(pyridin-3-ylmethyl)-3-(trifluoromethyl)pyrazol-4-yl]imidazole-2-carboxamide trihydrochloride] | 834

The next lines start with the values.

IC90 [nM] | SMILES
517 | Cn1c(-c2cn(Cc3cccnc3)nc2C(F)(F)F)cnc1C(=O)Nc1ccc(C(=O)N2CCN(C(=O)[C@H]3C[C@H](N)C3)CC2)c(Cl)c1 [Example 63, rac-N-(4-(4-((1r,3r)-3-aminocyclobutane-1-carbonyl)piperazine-1-carbonyl)-3-chlorophenyl)-1-methyl-5-(1-(pyridin-3-ylmethyl)-3-(trifluoromethyl)-1H-pyrazol-4-yl)-1H-imidazole-2-carboxamide trihydrochloride]
4660 | Cn1c(-c2cn(Cc3cccnc3)nc2C(F)(F)F)cnc1C(=O)Nc1ccc(C(=O)N2CCN(C(=O)[C@H]3CC[C@@H](N)C3)CC2)c(Cl)c1 [Example 64, N-(4-(4-((1S,3R)-3-aminocyclopentane-1-carbonyl)piperazine-1-carbonyl)-3-chlorophenyl)-1-methyl-5-(1-(pyridin-3-ylmethyl)-3-(trifluoromethyl)-1H-pyrazol-4-yl)-1H-imidazole-2-carboxamide trihydrochloride]
825 | Cn1c(-c2c[nH]nc2-c2ccccc2)cnc1C(=O)Nc1ccc(C(=O)N2CCN(C(=O)C3CCNCC3)CC2)c(Cl)c1 [Example 66, N-[3-chloro-4-[4-(piperidine-4-carbonyl)piperazine-1-carbonyl]phenyl]-1-methyl-5-(3-phenyl-1H-pyrazol-4-yl)imidazole-2-carboxamide]
1440 | Cn1c(-c2cn(Cc3cccnc3)nc2C(F)(F)F)cnc1C(=O)Nc1ccc(C(=O)N2CCNCC2)c(Cl)c1 [Example 67, N-[3-chloro-4-(piperazine-1-carbonyl)phenyl]-1-methyl-5-[1-(pyridin-3-ylmethyl)-3-(trifluoromethyl)pyrazol-4-yl]imidazole-2-carboxamide;hydrochloride]
489 | Cn1c(-c2cn(CCF)nc2C(F)(F)F)cnc1C(=O)Nc1ccc(C(=O)N2CCNCC2)c(Cl)c1 [Example 68, N-[3-chloro-4-(piperazine-1-carbonyl)phenyl]-5-[1-(2-fluoroethyl)-3-(trifluoromethyl)pyrazol-4-yl]-1-methylimidazole-2-carboxamide;hydrochloride]
309 | Cn1c(-c2cn(CC#N)nc2C(F)(F)F)cnc1C(=O)Nc1ccc(C(=O)N2CCNCC2)c(Cl)c1 [Example 69, N-[3-chloro-4-(piperazine-1-carbonyl)phenyl]-5-[1-(cyanomethyl)-3-(trifluoromethyl)pyrazol-4-yl]-1-methylimidazole-2-carboxamide;2,2,2-trifluoroacetic acid]
497 | Cn1c(-c2cn(Cc3cccnc3)nc2C(F)(F)F)cnc1C(=O)Nc1ccc(C(=O)N2CCN(C(=O)[C@H]3CCNC3)CC2)c(Cl)c1 [Example 70, N-[3-chloro-4-[4-[(3S)-pyrrolidine-3-carbonyl]piperazine-1-carbonyl]phenyl]-1-methyl-5-[1-(pyridin-3-ylmethyl)-3-(trifluoromethyl)pyrazol-4-yl]imidazole-2-carboxamide]
216 | C[C@H](N)C(=O)N1CCN(C(=O)c2ccc(NC(=O)c3ncc(-c4cn(CC#N)nc4C(F)(F)F)n3C)cc2Cl)CC1 [Example 71, N-[4-[4-[(2S)-2-aminopropanoyl]piperazine-1-carbonyl]-3-chlorophenyl]-5-[1-(cyanomethyl)-3-(trifluoromethyl)pyrazol-4-yl]-1-methylimidazole-2-carboxamide;2,2,2-trifluoroacetic acid]
2260 | Cn1c(-c2cn(CC#N)nc2C(F)(F)F)cnc1C(=O)Nc1ccc(C(=O)N2CCN(C(=O)C3(O)CCCNC3)CC2)c(Cl)c1 (centres unmarked) [Example 72, N-[3-chloro-4-[4-(3-hydroxypiperidine-3-carbonyl)piperazine-1-carbonyl]phenyl]-5-[1-(cyanomethyl)-3-(trifluoromethyl)pyrazol-4-yl]-1-methylimidazole-2-carboxamide;2,2,2-trifluoroacetic acid]
2550 | Cn1c(-c2cn(CC#N)nc2C(F)(F)F)cnc1C(=O)Nc1ccc(C(=O)N2CCN(C(=O)[C@H]3C[C@@H](N)C3)CC2)c(Cl)c1 [Example 73, N-[4-[4-(3-aminocyclobutanecarbonyl)piperazine-1-carbonyl]-3-chlorophenyl]-5-[1-(cyanomethyl)-3-(trifluoromethyl)pyrazol-4-yl]-1-methylimidazole-2-carboxamide;2,2,2-trifluoroacetic acid]

same assay, conditions: Acinetobacter baumannii, ATCC17961, read-out: ATCC 17961 IC90, Acinetobacter baumannii ATCC 17961, Iso-Sensitest broth

SMILES | IC90 [nM]
C=C=Cn1cc(-c2cnc(C(=O)Nc3ccc(C(=O)N4CCN(C(=O)C5CCNCC5)CC4)c(Cl)c3)n2C)c(C(F)(F)F)n1 [Example 65, N-[3-chloro-4-[4-(piperidine-4-carbonyl)piperazine-1-carbonyl]phenyl]-1-methyl-5-[1-propa-1,2-dienyl-3-(trifluoromethyl)pyrazol-4-yl]imidazole-2-carboxamide; Hydrochloride] | 260
